Among the data in patent US7601686B2, “Hepatitis C virus inhibitors” (Bristol-Myers Squibb Company, priority 2005, dated 2009) are IC50 and EC50 values, retold here.

By EC50 is commonly meant the midpoint of the concentration-response curve.

SMILES strings stand for the structures. Read-outs that look alike come from different tables or passages of the source.

In test [1] the target is T1, HCV NS3/4A protease complex, BMS strain (UniProt P27958, species not given/STRAIN_BMS).
T1 construct: DNA encoding the recombinant HCV NS3/4A protease complex (amino acids 1027 to 1711) for these strains [H77 and J4L6S]; fused on or other part: For the H77 and J4L6S constructs, a three-lysine solubilising tail at the NS4A C-terminus and a Ni-NTA-purifiable tag from pET21b
The test can be described thus: FRET peptide assay to monitor HCV NS3/4A proteolytic activity (BMS strain). It is filed as biochemical, Hepatitis C virus (genotype 1a). An excerpt:
Generation of Recombinant HCV NS3/4A Protease Complex
HCV NS3 protease complexes, derived from the BMS strain, H77 strain or J4L6S strain, were generated, as described below. These purified recombinant proteins were generated for use in a homogeneous assay (see below) to provide an indication of how effective compounds of the present disclosure would be in inhibiting HCV NS3 proteolytic activity.
Serum from an HCV-infected patient was obtained from Dr. T. Wright, San Francisco Hospital. An engineered full-length cDNA (compliment deoxyribonucleic acid) template of the HCV genome (BMS strain) was constructed from DNA fragments obtained by reverse transcription-PCR (RT-PCR) of serum RNA (ribonucleic acid) and using primers selected on the basis of homology between other genotype 1a strains. From the determination of the entire genome sequence, a genotype 1a was assigned to the HCV isolate according to the classification of Simmonds et al. (See P Simmonds, K A Rose, S Graham, S W Chan, F McOmish, B C Dow, E A Follett, P L Yap and H Marsden, J. Clin. Microbiol., 31(6), 1493-1503 (1993)). […] The infectious clones, H77 (1a genotype) and J4L6S (1b genotype) were obtained from R. Purcell (NIH) and the sequences are published in Genbank (AAB67036, see Yanagi, M., Purcell, R. H., Emerson, S. U. and Bukh, J. Proc. Natl. Acad. Sci. U.S.A. 94(16), 8738-8743 (1997); AF054247, see Yanagi, M., St Claire, M., Shapiro, M., Emerson, S. U., Purcell, R. H. and Bukh, J, Virology 244 (1), 161-172. (1998)).
The H77 and J4L6S strains were used for production of recombinant NS3/4A protease complexes. DNA encoding the recombinant HCV NS3/4A protease complex (amino acids 1027 to 1711) for these strains were manipulated as described by P. Gallinari et al. (see Gallinari P, Paolini C, Brennan D, Nardi C, Steinkuhler C, De Francesco R. Biochemistry. 38(17):5620-32, (1999)). Briefly, a three-lysine solubilizing tail was added at the 3′-end of the NS4A coding region. The cysteine in the P1 position of the NS4A-NS4B cleavage site (amino acid 1711) was changed to a glycine to avoid the proteolytic cleavage of the lysine tag. Furthermore, a cysteine to serine mutation was introduced by PCR at amino acid position 1454 to prevent the autolytic cleavage in the NS3 helicase domain. The variant DNA fragment was cloned in the pET21b bacterial expression vector (Novagen) and the NS3/4A complex was expressed in Escherichia coli strain BL21 (DE3) (Invitrogen) following the protocol described by P. Gallinari et al. (see Gallinari P, Brennan D, Nardi C, Brunetti M, Tomei L, Steinkuhler C, De Francesco R., J. Virol. 72(8):6758-69 (1998)) with modifications. Briefly, the NS3/4A protease complex expression was induced with 0.5 millimolar (mM) Isopropyl β-D-1-thiogalactopyranoside (IPTG) for 22 hours (h) at 20° C. A typical fermentation (1 Liter (L)) yielded approximately 10 grams (g) of wet cell paste. The cells were resuspended in lysis buffer (10 mL/g) consisting of 25 mM N-(2-Hydroxyethyl)piperazine-N′-(2-Ethane Sulfonic acid) (HEPES), pH 7.5, 20% glycerol, 500 mM Sodium Chloride (NaCl), 0.5% Triton X-100, 1 microgram/milliliter (“μg/mL”) lysozyme, 5 mM Magnesium Chloride (MgCl2), 1 μg/mL DnaseI, 5 mM β-Mercaptoethanol (βME), Protease inhibitor—Ethylenediamine Tetraacetic acid (EDTA) free (Roche), homogenized and incubated for 20 minutes (min) at 4° C. The homogenate was sonicated and clarified by ultra-centrifugation at 235000 g for 1 h at 4° C. Imidazole was added to the supernatant to a final concentration of 15 mM and the pH adjusted to 8.0. The crude protein extract was loaded on a Nickel—Nitrilotriacetic acid (Ni-NTA) column pre-equilibrated with buffer B (25 mM HEPES, pH 8.0, 20% glycerol, 500 mM NaCl, 0.5% Triton X-100, 15 mM imidazole, 5 mM βME). The sample was loaded at a flow rate of 1 mL/min. The column was washed with 15 column volumes of buffer C (same as buffer B except with 0.2% Triton X-100). […]

The test system of test [2] is HCV replicon in HUH-7 cells. As to the kind of experiment: HCV replicon FRET assay. It is filed as cell-based, Hepatitis C virus (strain 1b). Particulars: Hepatitis C virus. An excerpt:
Generation of HCV Replicon
An HCV replicon whole cell system was established as described by Lohmann V, Korner F, Koch J, Herian U, Theilmann L, Bartenschlager R., Science 285(5424):110-3 (1999). This system enabled us to evaluate the effects of our HCV Protease compounds on HCV RNA replication. Briefly, using the HCV strain 1b sequence described in the Lohmann paper (Assession number:AJ238799), an HCV cDNA was synthesized by Operon Technologies, Inc. (Alameda, Calif.), and the full-length replicon was then assembled in plasmid pGem9zf(+) (Promega, Madison, Wis.) using standard molecular biology techniques. The replicon consists of (i) the HCV 5′ UTR fused to the first 12 amino acids of the capsid protein, (ii) the neomycin phosphotransferase gene (neo), (iii) the IRES from encephalomyocarditis virus (EMCV), and (iv) HCV NS3 to NS5B genes and the HCV 3′ UTR. Plasmid DNAs were linearized with ScaI and RNA transcripts were synthesized in vitro using the T7 MegaScript transcription kit (Ambion, Austin, Tex.) according to manufacturer's directions. In vitro transcripts of the cDNA were transfected into the human hepatoma cell line, HUH-7. […] Resulting cell lines were characterized for positive and negative strand RNA production and protein production over time.
The HCV replicon FRET assay was developed to monitor the inhibitory effects of compounds described in the disclosure on HCV viral replication. HUH-7 cells, constitutively expressing the HCV replicon, were grown in Dulbecco's Modified Eagle Media (DMEM) (Gibco-BRL) containing 10% Fetal calf serum (FCS) (Sigma) and 1 mg/mL G418 (Gibco-BRL). Cells were seeded the night before (1.5×10^4 cells/well) in 96-well tissue-culture sterile plates. Compound and no compound controls were prepared in DMEM containing 4% FCS, 1:100 Penicillin/Streptomysin (Gibco-BRL), 1:100 L-glutamine and 5% DMSO in the dilution plate (0.5% DMSO final concentration in the assay). Compound/DMSO mixes were added to the cells and incubated for 4 days at 37° C. After 4 days, cells were first assessed for cytotoxicity using alamar Blue (Trek Diagnotstic Systems) for a CC50 reading. The toxicity of compound (CC50) was determined by adding 1/10th volume of alamar Blue to the media incubating the cells. After 4 h, the fluorescence signal from each well was read, with an excitation wavelength at 530 nm and an emission wavelength of 580 nm, using the Cytofluor Series 4000 (Perspective Biosystems). Plates were then rinsed thoroughly with Phosphate-Buffered Saline (PBS) (3 times 150 μl).

Setting [3] is: NS3/4A BMS strain, enzyme assay; read-out: IC 50 Range.
The mark [4] stands for this setting: HCV replicon cell assay, HUH-7, read-out: EC50 Range.
[5] abbreviates: read-out: IC 50 Range; NS3/4A BMS strain, enzyme assay.

T1 sequence (P27958 1027-1657, stated change not applied, one chain of several): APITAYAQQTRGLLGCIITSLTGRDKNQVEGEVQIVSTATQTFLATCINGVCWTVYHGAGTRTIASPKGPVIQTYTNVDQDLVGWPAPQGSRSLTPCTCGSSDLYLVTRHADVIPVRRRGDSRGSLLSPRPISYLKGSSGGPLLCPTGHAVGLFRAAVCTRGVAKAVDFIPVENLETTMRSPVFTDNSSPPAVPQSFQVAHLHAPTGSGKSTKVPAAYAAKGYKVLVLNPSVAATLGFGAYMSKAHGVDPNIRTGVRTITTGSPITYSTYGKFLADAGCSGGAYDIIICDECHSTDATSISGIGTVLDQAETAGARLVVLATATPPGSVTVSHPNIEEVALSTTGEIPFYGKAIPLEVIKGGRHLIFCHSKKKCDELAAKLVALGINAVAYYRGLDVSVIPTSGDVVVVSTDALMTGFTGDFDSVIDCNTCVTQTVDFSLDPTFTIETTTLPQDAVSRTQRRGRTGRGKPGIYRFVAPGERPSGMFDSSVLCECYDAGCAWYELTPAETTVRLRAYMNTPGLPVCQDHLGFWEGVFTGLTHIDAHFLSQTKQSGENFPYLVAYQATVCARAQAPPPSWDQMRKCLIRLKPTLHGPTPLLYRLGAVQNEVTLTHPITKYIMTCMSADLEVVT

As to `C=CC1CC1(NC(=O)[C@@H]1C[C@@H](NC(=O)n2ccc3cccnc32)CN1C(=O)[C@@H](NC(=O)CC1CC1)C(C)(C)C)C(=O)NS(=O)(=O)C1CC1` (stereo partly drawn) [Compound 50], the IC50 in test [1] (setting [3]) was under 0.15 µM. In test [2] (setting [4]), the EC50 was 0.15 to 15 µM.
With `C=CC1CC1(NC(=O)[C@@H]1C[C@@H](NC(=O)N2CCc3ccccc3C2)CN1C(=O)[C@@H](NC(=O)CC1CC1)C(C)(C)C)C(=O)NS(=O)(=O)C1CC1` (stereo partly drawn) [Compound 54], in test [1] (setting [5]), the IC50 was in the range of 0.15 to 15 µM.
Turning to `C=CC1CC1(NC(=O)[C@@H]1C[C@@H](NC(=O)c2cc3ccccc3cn2)CN1C(=O)[C@@H](NC(=O)CC1CC1)C(C)(C)C)C(=O)NS(=O)(=O)C1CC1` (stereo partly drawn) [Compound 28], in test [1] (setting [3]), the IC50 was under 0.15 µM. Also, in test [2] (setting [4]), the EC50 fell in the range of 0.15 to 15 µM.
For `C=CC1CC1(NC(=O)[C@@H]1C[C@@H](NC(=O)c2nccc3ccccc23)CN1C(=O)[C@@H](NC(=O)CC1CC1)C(C)(C)C)C(=O)NS(=O)(=O)C1CC1` (stereo partly drawn) [Compound 24] the same measures were 0.15 to 15 µM and over 15 µM.
With `C=CC1CC1(NC(=O)C1CC(NC(=O)c2cccc[n+]2[O-])CN1C(=O)C(NC(=O)CC1CC1)C(C)(C)C)C(=O)NS(=O)(=O)C1CC1` (stereo not drawn) [Compound 33], the IC50 in test [1] (setting [5]) is 0.15 to 15 µM. The EC50 in test [2] (setting [4]) was over 15 µM.
Regarding `C=CC1CC1(NC(=O)[C@@H]1C[C@@H](N2CCN(Cc3ccccc3)CC2)CN1C(=O)[C@@H](NC(=O)OC)C(C)(C)C)C(=O)NS(=O)(=O)C1CC1` (stereo partly drawn) [Compound 56], the IC50 in test [1] (setting [3]) is over 15 µM.
Turning to `C=CC1CC1(NC(=O)[C@@H]1C[C@@H](NC(=O)c2ccncc2)CN1C(=O)[C@@H](NC(=O)CC1CC1)C(C)(C)C)C(=O)NS(=O)(=O)C1CC1` (stereo partly drawn) [Compound 14], the IC50 in test [1] (setting [3]) fell in the range of 0.15 to 15 µM. Further, the EC50 in test [2] (setting [4]) is over 15 µM.
Regarding `C=CC1CC1(NC(=O)C1CC(NC(=O)c2ccc3ccccc3[n+]2[O-])CN1C(=O)C(NC(=O)CC1CC1)C(C)(C)C)C(=O)NS(=O)(=O)C1CC1` (stereo not drawn) [Compound 34], the IC50 in test [1] (setting [5]) is under 0.15 µM. Besides, in test [2] (setting [4]), the EC50 was 0.15 to 15 µM.
As for `C=CC1CC1(NC(=O)[C@@H]1C[C@@H](NC(=O)n2ccc3ccccc32)CN1C(=O)[C@@H](NC(=O)CC1CC1)C(C)(C)C)C(=O)NS(=O)(=O)C1CC1` (stereo partly drawn) [Compound 51], the IC50 in test [1] (setting [5]) was under 0.15 µM. In addition, in test [2] (Huh-7, read-out: EC50 Range), the EC50 lay within 0.15 to 15 µM.
Consider `C=CC1CC1(NC(=O)[C@@H]1C[C@@H](NC(=O)c2ccc3cnccc3n2)CN1C(=O)[C@@H](NC(=O)CC1CC1)C(C)(C)C)C(=O)NS(=O)(=O)C1CC1` (stereo partly drawn) [Compound 41], for which the IC50 in test [1] (setting [3]) was under 0.15 µM. Besides, the EC50 in test [2] (setting [4]) is over 15 µM.
`C=CC1CC1(NC(=O)[C@@H]1C[C@@H](NC(=O)c2ccnc3ccccc23)CN1C(=O)[C@@H](NC(=O)CC1CC1)C(C)(C)C)C(=O)NS(=O)(=O)C1CC1` (stereo partly drawn) [Compound 11]: in test [1] (setting [3]), the IC50 fell in the range of 0.15 to 15 µM.
Still for that read-out and setting: under `C=CC1CC1(NC(=O)[C@@H]1C[C@@H](NC(=O)c2sc3ccccc3c2Cl)CN1C(=O)[C@@H](NC(=O)CC1CC1)C(C)(C)C)C(=O)O` (single isomer, unassigned) [Compound 2, 1-({4-[(3-Chloro-benzo[b]thiophene-2-carbonyl)-amino]-1-[2-(2-cyclopropyl-acetylamino)-3,3-dimethyl-butyryl]-pyrrolidine-2-carbonyl}-amino)-2-vinyl-cyclopropanecarboxylic acid] stands over 15 µM; under `C=CC1CC1(NC(=O)[C@@H]1C[C@@H](NC(=O)c2cnc(N3CCCCC3)nc2-c2ccccc2)CN1C(=O)[C@@H](NC(=O)CC1CC1)C(C)(C)C)C(=O)NS(=O)(=O)C1CC1` (stereo partly drawn) [Compound 23], 0.15 to 15 µM; under `C=CC1CC1(NC(=O)[C@@H]1C[C@@H](N2Cc3ccccc3C2)CN1C(=O)[C@@H](NC(=O)C1CC1)C(C)(C)C)C(=O)NS(=O)(=O)C1CC1` (stereo partly drawn) [Compound 57], 0.15 to 15 µM.
Turning to `C=CC1CC1(NC(=O)[C@@H]1C[C@@H](N(C)C(=O)c2cc(-c3ccccc3)nc3ccccc23)CN1C(=O)[C@@H](NC(=O)OC(C)(C)C)C(C)(C)C)C(=O)NS(=O)(=O)C1CC1` (stereo partly drawn) [Compound 42], the IC50 in test [1] (setting [3]) was in the range of 0.15 to 15 µM.
Same read-out and setting: under `C=CC1CC1(NC(=O)[C@@H]1C[C@@H](NC(=O)c2c(OC)cccc2OC)CN1C(=O)[C@@H](NC(=O)CC1CC1)C(C)(C)C)C(=O)NS(=O)(=O)C1CC1` (stereo partly drawn) [Compound 36] stands 0.15 to 15 µM; under `C=CC1CC1(NC(=O)[C@@H]1C[C@@H](NC(=O)c2sc3ccccc3c2Cl)CN1C(=O)[C@@H](NC(=O)CC1CC1)C(C)(C)C)C(=O)O` (single isomer, unassigned) [Compound 1, 1-({4-[(3-Chloro-benzo[b]thiophene-2-carbonyl)-amino]-1-[2-(2-cyclopropyl-acetylamino)-3,3-dimethyl-butyryl]-pyrrolidine-2-carbonyl}-amino)-2-vinyl-cyclopropanecarboxylic acid], 0.15 to 15 µM.
Same read-out and setting: under `C=CC1CC1(NC(=O)[C@@H]1C[C@@H](NC(=O)c2ccncc2)CN1C(=O)[C@@H](NC(=O)CC1CC1)C(C)(C)C)C(=O)NS(=O)(=O)C1CC1` (stereo partly drawn) [Compound 15] stands 0.15 to 15 µM.
Regarding `C=CC1CC1(NC(=O)[C@@H]1C[C@@H](NC(=S)Nc2cccc3ccccc23)CN1C(=O)[C@@H](NC(=O)OC(C)(C)C)C(C)(C)C)C(=O)NS(=O)(=O)C1CC1` (stereo partly drawn) [Compound 46], in test [1] (setting [5]), the IC50 is 0.15 to 15 µM.
